Test: Saturation of dye in decane (solubility)
Type: physicochemical
Details: saturated solution in decane

SMILES	Saturation wt % in decane [wt %]
CCCCCCCCCCCCCCc1ccc(/N=N/c2c(C)c(C#N)c(=O)n(CC(CC)CCCC)c2O)cc1 (stereo not drawn) [Dye 5, (E)-1-(2-Ethylhexyl)-6-hydroxy-4-methyl-2-oxo-5-((4-tetradecylphenyl)diazenyl)-1,2-dihydropyridine-3-carbonitrile]	1.03
CCCCc1ccc(/N=N/c2ccc(N(CCCC)CCCC)cc2)cc1 [Dye 7]	9.95
CCCCCCCCN(CCCCCCCC)c1ccc(/N=N/c2snc(C)c2C#N)c(NC(C)=O)c1 [Dye 4, N-(2-((4-Cyano-3-methylisothiazol-5-yl)diazenyl)-5-(dioctylamino)phenyl)acetamide]	0.19
CCCCCCCCCCCCCCCCCCN(CCCCCCCCCCCCCCCCCC)c1cc(NC(C)=O)c(/N=N/c2c(C#N)cc([N+](=O)[O-])cc2C#N)cc1OC [Dye 1]	0.003
CCCCCCCCCCCCCCc1ccc(/N=N/c2c(C)cc(=O)n(CC(CC)CCCC)c2O)cc1 (stereo not drawn) [Dye 6, (E)-1-(2-ethylhexyl)-6-hydroxy-4-methyl-5-((4-tetradecylphenyl)diazenyl)pyridin-2(1H)-one]	3.72
CCCCCCCCN(CCCCCCCC)c1ccc(/N=N/c2ccc([N+](=O)[O-])cc2)c(C)c1 [Dye 8, (E)-3-Methyl-4-((4-nitrophenyl)diazenyl)-N,N-dioctylaniline]	10.50

— patent US10048562B2, “Electrophoretic fluid” (Merck Patent GmbH, priority 2012, dated 2018)
